Measured values as given in ChEMBL document CHEMBL1121697, “Carbocyclic analogues of 5-fluorouracil nucleosides” (1981).

What was measured:
Assay type in all cases: functional
[1] = tested on: Mus musculus; experiment: Number of deaths recorded in mice with P388 leukemia on days 1-5 after intraperitoneal administration of 400 mg/kg of compound in a q.d. 1-5 schedule; 0/6
[2] = tested on: Mus musculus; experiment: Number of deaths recorded in mice with P388 leukemia on days 1-5 after intraperitoneal administration of 50 mg/kg of compound in a q.d. 1-9 schedule; 0/5
[3] = tested on: Mus musculus; experiment: Number of deaths recorded in mice with P388 leukemia on days 1-5 after intraperitoneal administration of 600 mg/kg of compound in a q.d. 1-5 schedule; 0/6
[4] = tested on: Mus musculus; experiment: Median life span of the treated L1210 leukemia mice to that of control mice after intraperitoneal administration of 100 mg/kg of compound in a q.d. 1-9 schedule; 8.3/8.2
[5] = tested on: Mus musculus; experiment: Median life span of the treated P388 leukemia mice to that of control mice after intraperitoneal administration of 100 mg/kg of compound in a q.d. 1-9 schedule; 11.4/11.3
[6] = tested on: Mus musculus; experiment: Median life span of the treated P388 leukemia mice to that of control mice after intraperitoneal administration of 200 mg/kg of compound in a q.d. 1-5 schedule 12.0/11.9
[7] = tested on: Mus musculus; experiment: Median life span of the treated P388 leukemia mice to that of control mice after intraperitoneal administration of 400 mg/kg of compound in a q.d. 1-5 schedule; 14.3/11.9
[8] = tested on: Mus musculus; experiment: Median life span of the treated P388 leukemia mice to that of control mice after intraperitoneal administration of 50 mg/kg of compound in a q.d. 1-9 schedule; 10.5/10.9
[9] = tested on: Mus musculus; experiment: Median life span of the treated P388 leukemia mice to that of control mice after intraperitoneal administration of 600 mg/kg of compound in a q.d. 1-5 schedule; 13.1/12.0
[10] = tested on: Mus musculus; experiment: Number of deaths recorded in mice with L-1210 leukemia on days 1-5 after intraperitoneal administration of 100 mg/kg of compound in a q.d. 1-9 schedule; 0/6
[11] = tested on: Mus musculus; experiment: Number of deaths recorded in mice with P388 leukemia on days 1-5 after intraperitoneal administration of 100 mg/kg of compound in a q.d. 1-9 schedule; 0/6
[12] = tested on: Mus musculus; experiment: Number of deaths recorded in mice with P388 leukemia on days 1-5 after intraperitoneal administration of 200 mg/kg of compound in a q.d. 1-5 schedule; 0/6
[13] = tested on: Mus musculus; experiment: Average weight change in treated L1210 leukemia mice to that of control mice on administration of 100 mg/kg of compound in a q. d. 1-9 schedule
[14] = tested on: Mus musculus; experiment: Average weight change in treated P388 leukemia mice to that of control mice on administration of 100 mg/kg of compound in a q. d. 1-9 schedule
[15] = tested on: Mus musculus; experiment: Average weight change in treated P388 leukemia mice to that of control mice on administration of 200 mg/kg of compound in a q. d. 1-5 schedule
[16] = tested on: Mus musculus; experiment: Average weight change in treated P388 leukemia mice to that of control mice on administration of 400 mg/kg of compound in a q. d. 1-5 schedule
[17] = tested on: Mus musculus; experiment: Average weight change in treated P388 leukemia mice to that of control mice on administration of 50 mg/kg of compound in a q. d. 1-9 schedule
[18] = tested on: Mus musculus; experiment: Average weight change in treated P388 leukemia mice to that of control mice on administration of 600 mg/kg of compound in a q. d. 1-5 schedule
[19] = tested on: Mus musculus; experiment: Life span ratio of L1210 leukemia mice treated to that of control mice at dose 100 mg/kg, ip; conditions: route intraperitoneal
[20] = tested on: Mus musculus; experiment: Life span ratio of P388 leukemia mice treated to that of control mice at dose 100 mg/kg, ip; conditions: route intraperitoneal
[21] = tested on: Mus musculus; experiment: Life span ratio of P388 leukemia mice treated to that of control mice at dose 200 mg/kg, ip; conditions: route intraperitoneal
[22] = tested on: Mus musculus; experiment: Life span ratio of P388 leukemia mice treated to that of control mice at dose 400 mg/kg, ip; conditions: route intraperitoneal
[23] = tested on: Mus musculus; experiment: Life span ratio of P388 leukemia mice treated to that of control mice at dose 50 mg/kg, ip; conditions: route intraperitoneal
[24] = tested on: Mus musculus; experiment: Life span ratio of P388 leukemia mice treated to that of control mice at dose 600 mg/kg, ip; conditions: route intraperitoneal
[25] = tested on: Mus musculus; experiment: Number of deaths recorded in mice with P388 leukemia on days 1-5 after intraperitoneal administration of 50 mg/kg of compound in a q.d. 1-9 schedule; 0/6
[26] = species on record: Mus musculus; experiment: Median life span of the treated mice to that of control mice; 11.1/10.9
[27] = tested on: Mus musculus; experiment: Average weight change in treated mice to that of control mice on the same day of administration of 50 mg/kg of compound in a q. d. 1-9 schedule
[28] = tested on: Mus musculus; experiment: Life span ratio of mice treated to that of control mice at dose 50 mg/kg, ip; conditions: route intraperitoneal

Question: For `O=c1[nH]c(=O)n([C@H]2C[C@H](O)[C@@H](CO)O2)cc1F` [FLOXURIDINE], which No. of deaths [1] is on record?
Answer: The No. of deaths was 0.

Question: What about the No. of deaths [2] of the same compound?
Answer: The No. of deaths was 0.

Question: What about the No. of deaths [3] of the same compound?
Answer: The No. of deaths was 0.

Question: What about the Median life span [4] of the same compound?
Answer: Its Median life span is 8.3 days.

Question: And the Median life span [5]?
Answer: Its Median life span is 11.4 days.

Question: What about the Median life span [6] of the same compound?
Answer: The Median life span was 12 days.

Question: And the Median life span [7]?
Answer: Its Median life span is 14.3 days.

Question: What about the Median life span [8] of the same compound?
Answer: The Median life span was 10.5 days.

Question: What about the Median life span [9] of the same compound?
Answer: Its Median life span is 13.1 days.

Question: And the No. of deaths [10]?
Answer: The No. of deaths was 0.

Question: And the No. of deaths [11]?
Answer: Its No. of deaths is 0.

Question: What about the No. of deaths [12] of the same compound?
Answer: The No. of deaths was 0.

Question: And the Weight change [13]?
Answer: The Weight change was -0.5 g.

Question: And the Weight change [14]?
Answer: The Weight change was 0.6 g.

Question: What about the Weight change [15] of the same compound?
Answer: The Weight change was 0.8 g.

Question: And the Weight change [16]?
Answer: The Weight change was -0.3 g.

Question: What about the Weight change [17] of the same compound?
Answer: Its Weight change is 1 g.

Question: What about the Weight change [18] of the same compound?
Answer: The Weight change was -0.7 g.

Question: And the T/C [19]?
Answer: Its T/C is 101%.

Question: And the T/C [20]?
Answer: The T/C was 100%.

Question: And the T/C [21]?
Answer: The T/C was 100%.

Question: And the T/C [22]?
Answer: Its T/C is 120%.

Question: And the T/C [23]?
Answer: Its T/C is 96%.

Question: What about the T/C [24] of the same compound?
Answer: Its T/C is 109%.

Question: `O=c1[nH]c(=O)n(C2CC(CO)C(O)C2O)cc1F` (stereo not drawn) was tested. Which No. of deaths [25] did it give?
Answer: Its No. of deaths is 0.

Question: What about the Median life span [26] of the same compound?
Answer: The Median life span was 11.1 days.

Question: And the Weight change [27]?
Answer: Its Weight change is 0.9 g.

Question: And the T/C [28]?
Answer: The T/C was 101%.
